Values belong to the compound of their own block, whether it stands above or below them.
Legend:
GST-ARV1-N98 K84A = biological target: T1, GST-ARV1-N98 K84A (Homo sapiens, UniProt Q9H2C2, K84A); test: Liposome binding assay, site-directed mutant; settings: PE liposomes
T1 construct: Expresses amino-terminal 98 amino acids of ARV1; made in house; host or cells: E. coli BL21 (pGEX-4T1)

GST-ARV1-N98 E70A = biological target: T2, GST-ARV1-N98 E70A (Homo sapiens, UniProt Q9H2C2, E70A); test: Liposome binding assay, site-directed mutant; settings: PE liposomes
T2 construct: Expresses amino-terminal 98 amino acids of ARV1; made in house; host or cells: E. coli BL21 (pGEX-4T1)

6XHIS-ARV1-N98 = biological target: T3, 6XHIS-ARV1-N98 (Homo sapiens, UniProt Q9H2C2); test: HTRF phospholipid lipid-binding assay; settings: biotinylated lipid (Bio-PL) titrated, 0.75 μM protein; lipid labels mean the biotinylated lipids
T3 construct: made in house; host or cells: E. coli BL21
T3 sequence (Q9H2C2 1-98): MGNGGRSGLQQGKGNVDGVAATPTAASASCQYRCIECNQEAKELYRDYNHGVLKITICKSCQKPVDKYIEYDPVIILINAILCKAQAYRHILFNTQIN
Description: An HTRF assay was developed for 6XHIS-ARV1-N98-lipid binding. HTRF measures analyte interactions through fluorescence resonance energy transfer technology and time-resolved measurements ([53]). The interaction between two molecules can be quantified through binding each individual molecule involved with a fluorescent label and then analyzing the transfer of energy between the initial donor fluorophore and the secondary acceptor fluorophore. Following excitation of the first fluorophore, transfer of energy can only occur if the molecules bound with the fluorescent tags are within proximity to each other.
Assays were plated in 384-well flat bottom microplates (Greiner Bio, catalog #784075-25). Proteins were diluted using binding buffer (20 mM Hepes buffer, pH 7.2, containing 0.1% BSA, and 0.01% Tween20) to a stock concentration of 0.75 μM, and biotinylated phospholipids were dispensed, dried under nitrogen gas, and resuspended in binding buffer to a stock concentration of 50 μM. The lipid stock solution was diluted by 1:2 for a series of 12 serial dilutions. For the assay, in sequential order, 6 μl of binding buffer was loaded into the plate in triplicate for each dilution of phospholipid. To this, 2 μl of 0.75 μM 6XHIS-ARV1-N98 was added, followed by 2 μl of biotinylated phospholipid. Immediately following each addition loaded into the plate, the plate was centrifuged for 1 min at 1000 rpm to bring the contents to the bottom of the well. Next, detection antibodies were mixed with detection buffer (20 mM Hepes buffer, pH 8.5, containing 0.01% BSA and 200 mM KF). […] Plates were read on a PerkinElmer EnVision Xcite Multilabel plate reader.
Curves were logarithmically transformed and normalized to a common scale before being fit with a nonlinear regression of the agonist against the normalized response. […] For phospholipid competition analysis, IC50; M values were determined using nonlinear regression of the inhibitor against normalized response.

GST-ARV1-N98 K54/K59A = biological target: T4, GST-ARV1-N98 K54/K59A (Homo sapiens, UniProt Q9H2C2, K54A/K59A); test: Liposome binding assay, site-directed mutant; settings: PC:PL, sulfatide liposomes
T4 construct: Expresses amino-terminal 98 amino acids of ARV1; made in house; host or cells: E. coli BL21 (pGEX-4T1)

GST-ARV1-N98 N94Q = biological target: T5, GST-ARV1-N98 N94Q (Homo sapiens, UniProt Q9H2C2, N94Q); test: Liposome binding assay, site-directed mutant; settings: PI(4)P liposomes
T5 construct: Expresses amino-terminal 98 amino acids of ARV1; made in house; host or cells: E. coli BL21 (pGEX-4T1)
T5 sequence (Q9H2C2 1-98 N94Q): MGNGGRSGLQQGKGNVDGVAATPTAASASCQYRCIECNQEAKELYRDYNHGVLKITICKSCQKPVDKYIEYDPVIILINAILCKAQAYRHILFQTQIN

T2 sequence (Q9H2C2 1-98 E70A): as the sequence (Q9H2C2 1-98 N94Q) above, with E70A, Q94N counted along it
T4 sequence (Q9H2C2 1-98 K54A/K59A): as the sequence (Q9H2C2 1-98 N94Q) above, with K54A, K59A, Q94N counted along it
T1 sequence (Q9H2C2 1-98 K84A): as the sequence (Q9H2C2 1-98 N94Q) above, with K84A, Q94N counted along it

liposome binding (GST-ARV1-N98 K84A): showed binding
liposome binding (GST-ARV1-N98 E70A): showed binding
EC50 (6XHIS-ARV1-N98): 5.3 µM
Compound: phosphatidylethanolamine [PE]

Compound: CCCCCCCC/C=C\CCCCCCCC(=O)OC[C@H](COP(=O)(O)OCC(O)CO)OC(=O)CCCCCCC/C=C\CCCCCCCC (stereo partly drawn) [PG, phosphatidylglycerol]
liposome binding (GST-ARV1-N98 K54/K59A): unable to bind

EC50 (6XHIS-ARV1-N98): 1.1 µM
Compound: phosphatidylcholine [PC]

Compound: CCCCCC(=O)O[C@H](COC(=O)CCCCCNC(=O)CCCC[C@@H]1SC[C@@H]2NC(=O)N[C@@H]21)COP(=O)(O)O[C@H]1[C@H](O)[C@@H](O)[C@H](OP(=O)(O)O)[C@@H](O)[C@H]1O [reference compound]
liposome binding (GST-ARV1-N98 N94Q): lost the ability to bind

— article PMC11952846, “The sterol-regulating human ARV1 binds cholesterol and phospholipids through its conserved ARV1 homology domain” (The Journal of Biological Chemistry, 2025)
